Experimental data published in patent US12180226B2, “Spirotricycle RIPK1 inhibitors and methods of uses thereof” (Merck Sharp & Dohme LLC, priority 2021, dated 2024).
Where a name gives a salt, the structure may show the parent alone.

Biological target: RIPK1 (recombinant GST-RIPK1 kinase domain, residues 1-327) (Homo sapiens (Human), UniProt Q13546)
Assay: RIPK1-ADP-Glo Enzymatic Assay
Assay type: biochemical
Settings: ADP-Glo; 25 nM GST-RIPK1, 300 μM ATP; assay lower limit ~25 nM; read-out: RIPK1 V0 Ec50
Procedure, shortened: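 GST-tagged kinase domain (residues 1-327, Sf21-expressed), 25 nM, pre-incubated 30 min with compound at ambient temperature, then reacted 150 min with 300 μM ATP and 3 μM dephosphorylated MBP in HEPES pH 7.3 buffer. ADP measured by ADP-Glo luminescence; EC50 from ten-point titration (top 100000 nM), four-parameter fit.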

Chain of RIPK1 (recombinant GST-RIPK1 kinase domain, residues 1-327) (Q13546 1-327): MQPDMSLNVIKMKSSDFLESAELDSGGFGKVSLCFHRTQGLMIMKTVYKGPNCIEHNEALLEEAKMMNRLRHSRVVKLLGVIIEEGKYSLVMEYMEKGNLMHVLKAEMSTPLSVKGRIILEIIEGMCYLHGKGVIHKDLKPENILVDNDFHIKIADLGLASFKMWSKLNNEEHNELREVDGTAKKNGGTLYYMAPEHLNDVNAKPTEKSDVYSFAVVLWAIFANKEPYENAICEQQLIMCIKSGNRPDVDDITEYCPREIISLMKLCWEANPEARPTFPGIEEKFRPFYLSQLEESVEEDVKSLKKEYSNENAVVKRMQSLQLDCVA

| SMILES | EC50 |
| --- | --- |
| O=C1N2[C@@H](CC[C@H]2c2cc(F)cc(F)c2)OC12CCN(c1ncc(F)c(C3CC3)n1)CC2 [Example 4.65, (5′S,7a′R)-1-(4-cyclopropyl-5-fluoropyrimidin-2-yl)-5′-(3,5-difluorophenyl)tetrahydro-3′H-spiro[piperidine-4,2′-pyrrolo[2,1-b] [1,3]oxazol]-3′-one] | 164 nM |
| N#Cc1cnc(N2CCC3(CC2)O[C@@H]2CC[C@@H](c4cc(F)cc(F)c4)N2C3=O)nc1 [Example 4.76, 2-[(5′S,7a′R)-5′-(3,5-difluorophenyl)-3′-oxotetrahydro-1H,3′H-spiro[piperidine-4,2′-pyrrolo[2,1-b] [1,3]oxazol]-1-yl]pyrimidine-5-carbonitrile] | 38.2 nM |
| N#Cc1ccc(N2CCC3(CC2)O[C@@H]2CC[C@@H](c4ccccc4)N2C3=O)n2ncc(C(F)F)c12 [Example 4.179, 3-(difluoromethyl)-7-[(5′S,7a′R)-3′-oxo-5′-phenyltetrahydro-1H,3′H-spiro[piperidine-4,2′-pyrrolo[2,1-b] [1,3]oxazol]-1-yl]pyrazolo[1,5-a] pyridine-4-carbonitrile] | < 25 nM |
| O=C(c1cc2n(n1)CCCC2)N1CCC2(CC1)O[C@@H]1CC[C@@H](c3cc(F)cc(F)c3)N1C2=O [Example 5.75, (5′S,7a′R)-5′-(3,5-difluoro-phenyl)-1-(4,5,6,7-tetra-hydropyrazolo[1,5-a]-pyridine-2-carbonyl)tetra-hydro-3′H-spiro[piperi-dine-4,2′-pyrrolo[2,1-b]oxazol]-3′-one] | 524 nM |
| COc1ccc(N2CCC3(CC2)O[C@@H]2CC[C@@H](c4cc(F)cc(F)c4)N2C3=O)n2ncnc12 [Example 19.3, (5′S,7a′R)-5′-(3,5-difluorophenyl)-1-(8-methoxy-[1,2,4]triazolo[1,5-a]pyridin-5-yl)tetrahydro-3′H-spiro[piperidine-4,2′ pyrrolo[2,1-b]oxazol]-3′-one, TFA salt] | < 25 nM |
| O=C(c1cc(F)ccc1Cl)N1CCC2(CC1)O[C@@H]1CC[C@@H](c3ccccc3F)N1C2=O [Example 1.15, (5′S,7a′R)-1-(2-chloro-5-fluorobenzoyl)-5′-(2-fluorophenyl)tetrahydro-3′H-spiro[piperidine-4,2′-pyrrolo[2,1-b]oxazol]-3′-one] | 33.4 nM |
| O=C1N2[C@@H](CC[C@H]2c2cc(F)cc(F)c2)OC12CCN(C(c1ccccc1)C(F)F)CC2 (stereo partly drawn) [Example 22.1, (5′S,7a′R)-1-(2,2-Difluoro-1-phenylethyl)-5′-(3,5-difluorophenyl)tetrahydro-3′H-spiro[piperidine-4,2′-pyrrolo[2,1-b]oxazol]-3′-one] | 221 nM |
| N#Cc1ccc(N2CCC3(CC2)O[C@@H]2CC[C@@H](c4cncc(F)c4)N2C3=O)n2nccc12 [Example 14.3, 7-((5′S,7a′R)-5′-(5-fluoropyridin-3-yl)-3′-oxotetrahydro-3′H-spiro[piperidine-4,2′-pyrrolo[2,1-b]oxazol]-1-yl)pyrazolo[1,5-a]pyridine-4-carbonitrile] | < 25 nM |
| N#Cc1ccc(F)c(C(=O)N2CCC3(CC2)O[C@@H]2CC[C@@H](c4cc(F)cc(F)c4)N2C3=O)c1 [Example 5.16, 3-((5′S,7a′R)-5′-(3,5-difluorophenyl)-3′-oxo-tetrahydro-3′H-spiro [piperidine-4,2′-pyrrolo-[2,1-b]oxazole]-1-carbon-yl)-4-fluorobenzonitrile] | < 25 nM |
| N#Cc1ccc(F)c([C@@H]2CC[C@H]3OC4(CCN(c5ccnc6c(F)cnn56)CC4)C(=O)N32)c1 [Example 20.4, 4-fluoro-3-[(5′S,7a′R)-1-(3-fluoropyrazolo[1,5-a]pyrimidin-7-yl)-3′-oxotetrahydro-3′H-spiro[piperidine-4,2′-pyrrolo[2,1-b][1,3]oxazol]-5′-yl]benzonitrile] | < 25 nM |
| O=C1N2[C@@H](CC[C@H]2c2cc(F)cc(F)c2)OC12CCN(c1ncc(F)c3ncnn13)CC2 [Example 4.90, (5′S,7a′R)-5′-(3,5-difluorophenyl)-1-(8-fluoro-[1,2,4]triazolo [1,5-c]pyrimidin-5-yl)tetrahydro-3′H-spiro[piperidine-4,2′-pyrrolo[2,1-b]oxazol]-3′-one, TFA salt] | 380 nM |
| O=C(c1ccccc1)N1CCC2(CC1)O[C@@H]1CC[C@@H](c3ccccc3)N1C2=O [Example 1.3, (5′S,7a′R)-1-(benzenecarbonyl)-5′-phenyltetrahydro-3′H-spiro[piperidine-4,2′-pyrrolo[2,1-b] [1,3]oxazol]-3′-one] | < 25 nM |
| O=C1N2[C@@H](CC[C@H]2c2ccccc2)OC12CCN(c1ccnc3c(F)cnn13)CC2F (single isomer, unassigned) [Example 4.91, (3[R or S],4[S or R], 5′S,7a′R)-3-fluoro-1-(3-fluoropyrazolo[1,5-a]pyrimidin-7-yl)-5′-phenyltetrahydro-3′H-spiro[piperidine-4,2′-pyrrolo[2,1-b]oxazol]-3′-one, TFA salt] | < 25 nM |
| CC1CN(c2ccnc3ccnn23)CCC12O[C@@H]1CC[C@@H](c3ccccc3)N1C2=O (stereo partly drawn) [Example 4.238, (4R,5′S,7a′R)-3-methyl-5′-phenyl-1-(pyrazolo[1,5-a]pyrimidin-7-yl)tetrahydro-3′H-spiro[piperidine-4,2′-pyrrolo[2,1-b] [1,3]oxazol]-3′-one] | < 25 nM |
| N#Cc1cncc(N2CCC3(CC2)O[C@@H]2CC[C@@H](c4ccccc4)N2C3=O)n1 [Example 4.7, 6-[(5′S,7a′R)-3′-oxo-5′-phenyltetrahydro-1H,3′H-spiro[piperidine-4,2′-pyrrolo[2,1-b] [1,3]oxazol]-1-yl]pyrazine-2-carbonitrile] | 113 nM |
| COc1nc(N2CCC3(CC2)O[C@@H]2CC[C@@H](c4ccccc4)N2C3=O)ncc1-c1ncco1 [Example 21.10, (5′S,7a′R)-1-[4-methoxy-5-(1,3-oxazol-2-yl)pyrimidin-2-yl]-5′-phenyltetrahydro-3′H-spiro[piperidine-4,2′-pyrrolo[2,1-b][1,3]oxazol]-3′-one] | < 25 nM |
| O=C(c1cc(Cl)ccc1F)N1CCC2(CC1)O[C@@H]1CC[C@@H](c3ccccc3F)N1C2=O [Example 1.14, (5′S,7a′R)-1-(5-chloro-2-fluorobenzoyl)-5′-(2-fluorophenyl)tetrahydro-3′H-spiro[piperidine-4,2′-pyrrolo[2,1-b]oxazol]-3′-one] | < 25 nM |
| O=C1N2[C@@H](CC[C@H]2c2ccccc2)OC12CCN(c1cc(-c3ccsc3)ccn1)CC2 [Example 4.170, (5′S,7a′R)-5′-phenyl-1-[4-(thiophen-3-yl)pyridin-2-yl]tetrahydro-3′H-spiro[piperidine-4,2′-pyrrolo[2,1-b] [1,3]oxazol]-3′-one] | < 25 nM |
| COc1nc(N2CCC3(CC2)O[C@@H]2CC[C@@H](c4cc(F)cc(F)c4)N2C3=O)ncc1Cl [Example 4.62, (5′S,7a′R)-1-(5-chloro-4-methoxypyrimidin-2-yl)-5′-(3,5-difluorophenyl)tetrahydro-3′H-spiro[piperidine-4,2′-pyrrolo[2,1-b] [1,3]oxazol]-3′-one] | 39.2 nM |
| CC1CN(c2ccnc3ccnn23)CCC12O[C@@H]1CC[C@@H](c3ccccc3)N1C2=O (stereo partly drawn) [Example 4.235, (4R,5′S,7a′R)-3-methyl-5′-phenyl-1-(pyrazolo[1,5-a]pyrimidin-7-yl)tetrahydro-3′H-spiro[piperidine-4,2′-pyrrolo[2,1-b] [1,3]oxazol]-3′-one] | < 25 nM |
| C#Cc1cccc(C(=O)N2CCC3(CC2)O[C@@H]2CC[C@@H](c4ccccc4)N2C3=O)c1 [Example 6.141, (5′S,7a′R)-1-(3-ethynylbenzene-1-carbonyl)-5′-phenyl-tetrahydro-3′H-spiro [piperidine-4,2′-pyrrolo[2,1-b][1,3]oxazol]-3′-one] | < 25 nM |
| Cc1ncc([C@@H]2CC[C@H]3OC4(CCN(C(=O)c5ccccc5)CC4F)C(=O)N32)cc1F (stereo partly drawn) [Example 2.10, (5′S,7a′R)-1-(benzenecarbonyl)-3-fluoro-5′-(5-fluoro-6-methylpyridin-3-yl)tetrahydro-3′H-spiro[piperidine-4,2′-pyrrolo[2,1-b][1,3]oxazol]-3′-one] | 136 nM |
| O=C1N2[C@@H](CC[C@H]2c2cc(F)cc(F)c2)OC12CCN(c1ncnn3ccnc13)CC2 [Example 4.228, (5′S,7a′R)-5′-(3,5-difluorophenyl)-1-(imidazo[2,1-f] [1,2,4]triazin-4-yl)tetrahydro-3′H-spiro[piperidine-4,2′-pyrrolo[2,1-b] [1,3]oxazol]-3′-one] | 78.9 nM |
| Cc1nc(N2CCC3(CC2)O[C@@H]2CC[C@@H](c4ccccc4)N2C3=O)ncc1-c1cnoc1 [Example 21.9, (5′S,7a′R)-1-[4-methyl-5-(1,2-oxazol-4-yl)pyrimidin-2-yl]-5′-phenyltetrahydro-3′H-spiro[piperidine-4,2′-pyrrolo[2,1-b][1,3]oxazol]-3′-one] | 37.8 nM |
| CN(C)c1cccc(C(=O)N2CCC3(CC2)O[C@@H]2CC[C@@H](c4ccccc4)N2C3=O)c1 [Example 6.144, (5′S,7a′R)-1-[3-(dimethylamino)ben-zene-1-carbonyl]-5′-phenyltetrahydro-3′H-spiro[piperidine-4,2′-pyrrolo[2,1-b][1,3]oxazol]-3'-one] | < 25 nM |
| Cc1ccc(F)c(C(=O)N2CCC3(CC2)O[C@@H]2CC[C@@H](c4cc(F)cc(F)c4)N2C3=O)c1 [Example 6.5, (5′S,7a′R)-5′-(3,5-difluorophenyl)-1-(2-fluoro-5-methyl-benzene-1-carbonyl) tetrahydro-3′H-spiro [piperidine-4,2′-pyrrolo[2,1-b][1,3]oxazol]-3′-one] | < 25 nM |
| O=C(c1nccs1)N1CCC2(CC1)O[C@@H]1CC[C@@H](c3cc(F)cc(F)c3)N1C2=O [Example 5.35, (5′S,7a′R)-5′-(3,5-difluoro-phenyl)-1-(thiazole-2-carbonyl)tetrahydro-3′H-spiro[piperidine-4,2′-pyrrolo[2,1-b]oxazol]-3′-one] | 25 nM |
